Results from US20040110802A1, “Antibacterial benzoic acid derivatives” (priority 2002, published 2004).
In brackets after ≈: the same amount, converted by molar mass.

Tested on: SAUR 9218
Assay: MIC Test Method, standard agar dilution
Assay type: cell-based
Conditions: agar dilution, Mueller Hinton agar, incubated overnight at 35° C.; lowest concentration that inhibits visible growth; read-out: SAUR 9218 MIC
How it was run: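 Agar dilution in Mueller Hinton agar with serial 2-fold compound dilutions. Staphylococcus aureus strain 9218 spotted at approximately 10^4 to 10^5 cells per spot, incubated overnight at 35 °C; MIC (μg/ml) is the lowest concentration preventing visible growth.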

Structure (SMILES) | MIC [µg/mL]
Cc1sc(C(=O)Nc2ccc(Br)cc2C(=O)O)cc1S(=O)(=O)NC1CCN(Cc2ccccc2)CC1 | > 128
CCCCN(CCCC)CCCNS(=O)(=O)c1cc(C(=O)Nc2ccc(Br)cc2C(=O)O)cs1 | > 128
CCCCN(CCCC)CCCNS(=O)(=O)c1csc(C(=O)Nc2ccc(Br)cc2C(=O)O)c1C | > 128
CCCCN(CCCC)CCCNS(=O)(=O)c1cc(C(=O)Nc2ccc(Br)cc2C(=O)O)sc1C | > 128
CS(=O)(=O)c1ncc(Cl)c(C(=O)Nc2ccc(Cl)cc2C(=O)O)n1 | > 128
CSc1ncc(Cl)c(C(=O)Nc2ccc(Br)cc2C(=O)O)n1 | > 128
O=C(O)c1cc(Br)ccc1NC(=O)c1nc(N2CCOCC2)ncc1Cl | > 128
COc1cc(C(=O)Nc2ccc(Br)cc2C(=O)O)nn1Cc1ccccc1 | 128 (≈ 297 µM)
Cl.N#Cc1ccc(NC(=O)c2ccc(SCc3ccccc3)nc2)c(C(=O)O)c1 | 0.25
CS(=O)(=O)c1ncc(N2CCOCC2)c(C(=O)Nc2ccc(Br)cc2C(=O)O)n1 | > 128
N#Cc1ccc(NC(=O)c2ccc3c(c2)S(=O)(=O)N(c2ccc(Cl)cc2)CC3)c(C(=O)O)c1 | 0.25 (≈ 0.519 µM)
COc1ccc(C(=O)Nc2ccc(C#N)cc2C(=O)O)c(OC)n1 | > 128
N#Cc1ccc(NC(=O)c2ccc3c(c2)OCO3)c(C(=O)O)c1 | 16 (≈ 51.6 µM)
Cc1ccccc1-c1cncc(C(=O)Nc2ccc(C#N)cc2C(=O)O)c1 | 8 (≈ 22.4 µM)
N#Cc1ccc(NC(=O)c2cncc(-c3ccccc3C(F)(F)F)c2)c(C(=O)O)c1 | 2 (≈ 4.86 µM)
CC(C)(C)c1ccc(-c2cncc(C(=O)Nc3ccc(C#N)cc3C(=O)O)c2)cc1 | 32 (≈ 80.1 µM)
N#Cc1ccc(NC(=O)c2cncc(Oc3ccccc3)c2)c(C(=O)O)c1 | 8 (≈ 22.3 µM)
N#Cc1ccc(NC(=O)c2ccc(S(=O)(=O)N3CCc4cc(Cl)ccc43)nc2)c(C(=O)O)c1 | 2 (≈ 4.14 µM)
CC(Sc1ccc(C(=O)Nc2ccc(C#N)cc2C(=O)O)cn1)c1ccccc1 (stereo not shown) | 0.25 (≈ 0.62 µM)
N#Cc1ccc(NC(=O)c2ccc(SC3CCCC3)nc2)c(C(=O)O)c1 | 0.5 (≈ 1.36 µM)
CCOc1nc(SCc2ccccc2)ncc1C(=O)Nc1ccc(C#N)cc1C(=O)O | 8 (≈ 18.4 µM)

Structure (SMILES) | MIC [µg/mL]
N#Cc1ccc(NC(=O)c2nnc(SCc3ccccc3)s2)c(C(=O)O)c1 | 0.125 (≈ 0.315 µM)
N#Cc1ccc(NC(=O)c2cc(-c3ccccc3)nc3ccccc23)c(C(=O)O)c1 | 16 (≈ 40.7 µM)
Cc1sc(C(=O)Nc2ccc(C#N)cc2C(=O)O)cc1S(=O)(=O)N1CC(C)OC(C)C1 (stereo not shown) | 16 (≈ 34.5 µM)
Cc1sc(C(=O)Nc2ccc(C#N)cc2C(=O)O)cc1S(=O)(=O)N(C)C1CCCCC1 | 8 (≈ 17.3 µM)
CC(=O)c1ccc(N2CCN(S(=O)(=O)c3cc(C(=O)Nc4ccc(C#N)cc4C(=O)O)sc3C)CC2)cc1 | 16 (≈ 29 µM)
CCN(CC)C(=O)C1CCCN(S(=O)(=O)c2cc(C(=O)Nc3ccc(C#N)cc3C(=O)O)sc2C)C1 (stereo not shown) | 64 (≈ 120 µM)
C=CCN(C1CCCC1)S(=O)(=O)c1cc(C(=O)Nc2ccc(C#N)cc2C(=O)O)sc1C | 8 (≈ 16.9 µM)
Cc1sc(C(=O)Nc2ccc(C#N)cc2C(=O)O)cc1S(=O)(=O)N(CC(C)C)CC(C)C | 32 (≈ 67 µM)
Cc1sc(C(=O)Nc2ccc(C#N)cc2C(=O)O)cc1S(=O)(=O)N1CCN(c2ncccn2)CC1 | 64 (≈ 125 µM)
Cc1sc(C(=O)Nc2ccc(C#N)cc2C(=O)O)cc1S(=O)(=O)N(CCC#N)Cc1ccccc1 | 64 (≈ 126 µM)
Cc1sc(C(=O)Nc2ccc(C#N)cc2C(=O)O)cc1S(=O)(=O)N(CCO)Cc1ccccc1 | 16 (≈ 32 µM)
Cc1sc(C(=O)Nc2ccc(C#N)cc2C(=O)O)cc1S(=O)(=O)N1CCCCCC1 | 8 (≈ 17.9 µM)
Cc1sc(C(=O)Nc2ccc(C#N)cc2C(=O)O)cc1S(=O)(=O)N1CCN(c2cccc(C(F)(F)F)c2)CC1 | 32 (≈ 55.3 µM)
Cc1sc(C(=O)Nc2ccc(C#N)cc2C(=O)O)cc1S(=O)(=O)N1CCCC1CN1CCCC1 (stereo not shown) | 128 (≈ 255 µM)
Cc1sc(C(=O)Nc2ccc(C#N)cc2C(=O)O)cc1S(=O)(=O)N1CCOCC1 | 32 (≈ 73.5 µM)
Cc1sc(C(=O)Nc2ccc(C#N)cc2C(=O)O)cc1S(=O)(=O)N1CCN(c2ccc([N+](=O)[O-])cc2)CC1 | 4 (≈ 7.2 µM)
CCCCN(CC)S(=O)(=O)c1cc(C(=O)Nc2ccc(C#N)cc2C(=O)O)sc1C | 8 (≈ 17.8 µM)
Cc1sc(C(=O)Nc2ccc(C#N)cc2C(=O)O)cc1S(=O)(=O)N(C)CC(O)c1ccccc1 (stereo not shown) | 2 (≈ 4 µM)
COCC1CCCN1S(=O)(=O)c1cc(C(=O)Nc2ccc(C#N)cc2C(=O)O)sc1C (stereo not shown) | 64 (≈ 138 µM)
Cc1sc(C(=O)Nc2ccc(C#N)cc2C(=O)O)cc1S(=O)(=O)N1CCC(C#N)(c2ccccc2)CC1 | 8 (≈ 15 µM)
Cc1sc(C(=O)Nc2ccc(C#N)cc2C(=O)O)cc1S(=O)(=O)N1CC(C)CC(C)C1 (stereo not shown) | 16 (≈ 34.7 µM)

Structure (SMILES) | MIC [µg/mL]
CCN(CC)CCN(CC)S(=O)(=O)c1cc(C(=O)Nc2ccc(C#N)cc2C(=O)O)sc1C | 128 (≈ 260 µM)
Cc1sc(C(=O)Nc2ccc(C#N)cc2C(=O)O)cc1S(=O)(=O)N(Cc1ccccc1)C(C)C | 32 (≈ 64.3 µM)
Cc1sc(C(=O)Nc2ccc(C#N)cc2C(=O)O)cc1S(=O)(=O)N1CCN(c2ccccc2)CC1 | 8 (≈ 15.7 µM)
Cc1sc(C(=O)Nc2ccc(C#N)cc2C(=O)O)cc1S(=O)(=O)N1CCCC1C (stereo not shown) | 8 (≈ 18.5 µM)
Cc1sc(C(=O)Nc2ccc(C#N)cc2C(=O)O)cc1S(=O)(=O)N1CCN(c2ccc(F)cc2)CC1 | 16 (≈ 30.3 µM)
Cc1sc(C(=O)Nc2ccc(C#N)cc2C(=O)O)cc1S(=O)(=O)N1CCN(c2ccccn2)CC1 | 32 (≈ 62.6 µM)
Cc1sc(C(=O)Nc2ccc(C#N)cc2C(=O)O)cc1S(=O)(=O)N1CCC(C)CC1 | 8 (≈ 17.9 µM)
Cc1sc(C(=O)Nc2ccc(C#N)cc2C(=O)O)cc1S(=O)(=O)Nc1ccc2c(c1)CCC2 | 32 (≈ 66.5 µM)
Cc1sc(C(=O)Nc2ccc(C#N)cc2C(=O)O)cc1S(=O)(=O)N(C)CCc1ccccc1 | 4 (≈ 8.27 µM)
Cc1sc(C(=O)Nc2ccc(C#N)cc2C(=O)O)cc1S(=O)(=O)N1CCCCCCC1 | 8 (≈ 17.3 µM)
Cc1sc(C(=O)Nc2ccc(C#N)cc2C(=O)O)cc1S(=O)(=O)N1CCCC(C)C1 (stereo not shown) | 2 (≈ 4.47 µM)
Cc1sc(C(=O)Nc2ccc(C#N)cc2C(=O)O)cc1S(=O)(=O)N(C)CCC(O)c1ccccc1 (stereo not shown) | 64 (≈ 125 µM)
CCCCN(CC#N)S(=O)(=O)c1cc(C(=O)Nc2ccc(C#N)cc2C(=O)O)sc1C | 64 (≈ 139 µM)
Cc1sc(C(=O)Nc2ccc(C#N)cc2C(=O)O)cc1S(=O)(=O)N1CCCC1 | 16 (≈ 38.1 µM)
Cc1sc(C(=O)Nc2ccc(C#N)cc2C(=O)O)cc1S(=O)(=O)N1CCN(Cc2ccccc2)CC1 | > 128
Cc1sc(C(=O)Nc2ccc(C#N)cc2C(=O)O)cc1S(=O)(=O)N(C)CCC#N | 128 (≈ 296 µM)
Cc1sc(C(=O)Nc2ccc(C#N)cc2C(=O)O)cc1S(=O)(=O)N1CCC(O)CC1 | 16 (≈ 35.6 µM)
O=C(Nc1ccc(Br)cc1C(=O)O)c1cc(SCc2ccccc2)ccn1 | 2 (≈ 4.51 µM)
O=C(Nc1ccc(Br)cc1C(=O)O)c1cccc(SCc2ccccc2)n1 | 16 (≈ 36.1 µM)

The remaining lines, values ahead:

MIC [µg/mL] | Structure (SMILES)
4 | CSc1ccc(C(=O)Nc2ccc(C#N)cc2C(=O)O)cn1.Cl
0.5 | CCSc1ccc(C(=O)Nc2ccc(C#N)cc2C(=O)O)cn1.Cl
16 (≈ 53 µM) | N#Cc1ccc(NC(=O)c2ccc(Cl)nc2)c(C(=O)O)c1
1 (≈ 3.49 µM) | Cc1ccsc1C(=O)Nc1ccc(C#N)cc1C(=O)O
> 128 | N#Cc1ccc(NC(=O)c2ccoc2)c(C(=O)O)c1
4 (≈ 12.6 µM) | CC1=C(C(=O)Nc2ccc(C#N)cc2C(=O)O)Cc2ccccc21
32 (≈ 92.4 µM) | N#Cc1ccc(NC(=O)c2cccc(Br)n2)c(C(=O)O)c1
> 128 | Cc1cc(C(=O)Nc2ccc(C#N)cc2C(=O)O)c(C)o1
> 128 | N#Cc1ccc(NC(=O)c2ccsc2)c(C(=O)O)c1
32 (≈ 120 µM) | N#Cc1ccc(NC(=O)c2ccccn2)c(C(=O)O)c1
8 (≈ 25.2 µM) | N#Cc1ccc(NC(=O)c2ccc3ccccc3n2)c(C(=O)O)c1
8 (≈ 23.1 µM) | N#Cc1ccc(NC(=O)c2cncc(Br)c2)c(C(=O)O)c1
8 (≈ 26.9 µM) | COc1ccc(C(=O)Nc2ccc(C#N)cc2C(=O)O)cn1
8 (≈ 23.1 µM) | Cn1cccc1-c1cncc(C(=O)Nc2ccc(C#N)cc2C(=O)O)c1
16 (≈ 46.3 µM) | N#Cc1ccc(NC(=O)c2cncc(-c3cnccn3)c2)c(C(=O)O)c1
> 128 | N#Cc1ccc(NC(=O)c2cncc(-c3ccccn3)c2)c(C(=O)O)c1
4 (≈ 12 µM) | N#Cc1ccc(NC(=O)c2cncc(-c3ccco3)c2)c(C(=O)O)c1
> 128 | N#Cc1ccc(NC(=O)c2cncc(-c3ccc(Cl)cc3)c2)c(C(=O)O)c1
0.5 | CCCSc1ccc(C(=O)Nc2ccc(C#N)cc2C(=O)O)cn1.Cl
2 (≈ 6.55 µM) | N#Cc1ccc(NC(=O)c2cc3ccccc3[nH]2)c(C(=O)O)c1
2 (≈ 6.53 µM) | N#Cc1ccc(NC(=O)c2cc3ccccc3o2)c(C(=O)O)c1
128 (≈ 477 µM) | N#Cc1ccc(NC(=O)c2cnccn2)c(C(=O)O)c1
0.25 (≈ 0.703 µM) | CCCCSc1ccc(C(=O)Nc2ccc(C#N)cc2C(=O)O)cn1
64 (≈ 199 µM) | N#Cc1ccc(NC(=O)c2cncc(C#CCO)c2)c(C(=O)O)c1
0.25 (≈ 0.732 µM) | CC(C)Sc1ccc(C(=O)Nc2ccc(C#N)cc2C(=O)O)cn1
> 128 | N#Cc1ccc(NC(=O)c2csc(-c3cccnc3)n2)c(C(=O)O)c1
> 128 | N#Cc1ccc(NC(=O)c2ccco2)c(C(=O)O)c1
